Data: patent US9326511B2, “Methods of inhibiting microbial biofilms” (priority 2008, dated 2016)
In brackets after ≈: the same amount, converted by molar mass. Entries after “also recorded” stand apart in the source; their conditions may differ. Read-outs that look alike come from different tables or passages of the source. Marks after values point to notes of the source that are not given here.

How the values were obtained:
E. coli cells = experiment: Binding of compounds with bacterial cells (spectrofluorimetric analysis of cell lysates); details: 5 min incubation
Procedure: […] At the end of the incubation period, the cells were sedimented by centrifugation to remove the fraction of unbound test compound and the cell pellet was resuspended in 2 ml of 2% SDS to obtain cell lysates. After overnight incubation with SDS, the amount of cell-bound test compound was estimated by spectrofluorimetric analysis of the cell lysates. The concentration of the compounds in the cell lysates was calculated by measuring the intensities at the maximum of the emission fluorescence spectrum and interpolating the data on a calibration plot. The amount of cell-bound test compound was expressed as nmoles of compound per mg of cell protein. The protein concentration was determined by the method of Lowry (Lowry et al., 1951, J. Biol. Chem. 193:265-275).
All experiments were run in triplicate and the results represent the average of 3 determinations with standard deviations.

[1] = Chemical stability, qualitative stress tests (HPLC, LC-MS); assay type: physicochemical; details: solid, aqueous solution, PBS, 7 days each at 50, 70 and 90° C.
Procedure: The following HPLC methodology was established for the analysis of the exemplary compounds of the invention.
The method involves detection by UV at a wavelength of 420 nm, which is very specific for these compounds. In order to monitor impurities not related to the porphyrin structure (and therefore not absorbing at 420 nm) UV spectra of the whole chromatograms were also recorded between 200 nm and 700 nm by DAD (diode array detector) in certain experiments. • Column: Zorbax Phenyl, 250×4.6 mm, 5 µm • Eluent A: 1.5 g sodium dodecylsulfate+1 mL formic acid in 1000 mL water • Eluent B: 1.5 g sodium dodecylsulfate+1 mL formic acid in 200 mL water+800 mL tetrahydrofurane • Gradient:
• Flow rate: 0.4 mL/min • Detection: 420 nm • Column temperature: 25° C. • Injection volume: 10 μl • Solutions: Porphyrin derivatives were dissolved in eluent A to give a final concentration of approximately 0.3 mg/ml.
Qualitative stress tests were undertaken on the exemplary compounds of the invention. Analysis was undertaken by HPLC & LC-MS. The compounds were stress tested in solid form, in an aqueous solution and a solution made up in phosphate-buffered saline buffer. The samples were initially incubated for 7 days at 50° C. and a sample removed for testing. The samples were then incubated for a further 7 days at 70° C., samples removed as before and the samples incubated further for 7 days at 90° C. HPLC analysis of freshly prepared solutions was undertaken and compared to the samples after 7, 14 and 21 days incubation. A visual comparison of the chromatograms was then undertaken and the content of the main products and by-products as area percentage values determined (see FIG. 4).

S. aureus SH1000 = experiment: Planktonic MIC by broth microdilution (BSAC guidelines); assay type: cell-based, Staphylococcus aureus
Procedure: (§1) Methods: MICs were determined for planktonic cultures by broth microdilution according to British Society for Antimicrobial Chemotherapy (BSAC) guidelines. Biofilm MICs (bMIC) and minimum biofilm eradication concentrations (MBECs) were determined using the Calgary biofilm device. The effect of Compound 10 on the viability of cold culture cells was determined by growing S. aureus SH1000 to early exponential phase at 37° C. and resuspending the cells in pre-chilled media, where they were maintained in the presence and absence of Compound 10 and control agents. The effect of Compound 10 on slow growing cells expressing the stringent response was also determined by growing cultures to early log phase and the stringent response induced by the addition of the isoleucyl-tRNA synthetase inhibitor mupirocin. Compound 10 and control agents were then added and samples recovered for viable cell determinations.

[2] = tested on: S. aureus SH1000 biofilms; experiment: Biofilm MIC and minimum biofilm eradication concentration, Calgary Biofilm Device; assay type: cell-based, Staphylococcus aureus; details: Staphylococcus aureus, SH1000BIOFILMS, read-out: bMIC
Procedure: as §1
Biofilm MICs and minimum biofilm eradication concentrations (MBEC) were determined in the Calgary Biofilm Device (Nunc Inc, Roskilde, Denmark) as described by Miller et al., 2005. This involves the following steps. Aliquots (200 μL) of exponential phase cultures of strain SH1000 were added to each well of a 96-well microtitre tray. The lid assembly, which has 96 polystyrene pegs corresponding to each well, was then replaced and the system incubated for 24 hours at 37° C. on a rocking platform. Following this a biofilm of approximately 10^7 cfu matured on each peg. The lid was then washed twice in phosphate-buffered saline (PBS) to remove residual planktonic growth and then placed into a microtitre tray with fresh media containing doubling dilutions of the test antibiotic. The system was then incubated for 24 hours at 37° C. on a rocking platform. The MIC was defined as the lowest concentration of antibiotic completely inhibiting visible growth after this incubation. After the MIC was recorded, the lid assembly was again washed twice in PBS to remove planktonic cells and remaining antibiotic and then placed into fresh drug-free media. The system was incubated for a further 24 hours and the MBEC was defined as the lowest concentration of antibiotic completely inhibiting the re-establishment of planktonic growth.

[3] = tested on: stringent S. aureus SH1000 cultures; experiment: Time-kill against cultures expressing the stringent response (induced with mupirocin); assay type: cell-based, Staphylococcus aureus; details: stringent response induced with mupirocin, agents at 4×MIC
Procedure: as §1
When nutrients become limiting for growth bacteria adjust their metabolism from one that supports growth to one that provides for long survival in the absence of nutrients. In many bacteria a key facilitator of this physiological switch, known as the stringent response, is accumulation of guanosine […] and pentaphosphate (Traxler et al., 2008). The antibiotic mupirocin is a strong inducer of the stringent response in S. aureus and effectively causes starvation of charged isoleucyl tRNA by potent inhibition of isoleucy ItRNA synthetase (IRS) (Oliva et al., 2003). The activity of XF drugs against S. aureus SH1000 prevented from growing by the addition of mupirocin (Oliva et al., 2003), was therefore examined (FIG. 10). As an alternative method for arresting growth, bacteria were suspended in cold growth medium (Mascio et al., 2007) and the bactericidal activity of XF drugs was also determined under these conditions (FIG. 11).
(§2) The anti-staphylococcal activities of Compound 10, Compound 12 and a range of comparator agents against slow-growing cultures of Staphylococcus aureus were studied using standard time-kill methodology (Oliva et al. 2003, Hobbs et al. 2008). Staphylococcus aureus SH1000 cultures were grown to early exponential phase (OD600 nm of 0.2) in Mueller-Hinton broth (MHB) before being exposed to antibacterial agents at 4×MIC. An untreated culture served as the negative control. The experiments were undertaken in triplicate.
The antibiotic mupirocin is a strong inducer of the stringent response in S. aureus and causes starvation of charged isoleucyl tRNA by potent inhibition of isoleucyl tRNA synthetase (IRS) (Oliva et al. 2003, Cassels et al. 1995) Stringency was induced in SH1000 cultures by adding mupirocin (4 mg/L) to cells in the early exponential growth phase (OD600 nm of 0.2) (Oliva et al. 2003, Cassels et al. 1995). Cultures were incubated with mupirocin for 30 minutes before sampling began. Cultures were maintained at 37° C., and samples were taken at 30 minute intervals for 300 minutes, serially diluted in phosphate buffered saline (PBS) and diluted culture was spread on Mueller-Hinton agar and was incubated at 37° C. for 18-24 hours before the number of CFU were counted.

[4] = tested on: S. aureus SH1000 cold cultures; experiment: Time-kill against cold cultures (4° C.); assay type: cell-based, Staphylococcus aureus; details: cold culture held at 4° C. for 5 hours, agents at 4×MIC
Procedure: as §1
The effect of XF drugs on the viability of cold culture cells was determined by growing S. aureus SH1000 to early exponential phase at 37° C., harvesting the cells by centrifugation (5,000×g, 10 min.) and resuspending them in pre-chilled media where they were maintained in the presence and absence of XF drugs and control agents for 5 hours. […] (FIG. 11).
as §2
Cold cultures were prepared by growing SH1000 cells to early exponential phase (OD600 nm of 0.2) at 37° C. Cultures were then centrifuged and the cell pellet was resuspended in MHB pre-chilled to 4° C. The killing kinetics of antimicrobial agents were studied as described in the section above, with the exception that cultures were maintained at 4° C. over the 5 hour sampling period.

S. aureus 8325-4 = details: previous studies (Oliva et al., 2003); cited from earlier work
staphylococci = details: cited from earlier work; for MIC Values: literature value (Critchley et al. 2003)
[5] = planktonic S. aureus SH1000 (Table 6)

CN(C)CCC[N+](C)(C)CCCOc1ccc(-c2c3nc(cc4ccc([nH]4)c(-c4ccc(OCCC[N+](C)(C)CCCN(C)C)cc4)c4nc(cc5ccc2[nH]5)C=C4)C=C3)cc1.[Cl-].[Cl-] [Compound 8, 5,15-bis-(4-{3-[(3-Dimethylamino-propyl)-dimethyl-ammonio]-propyloxy}-phenyl)-porphyrin dichloride]
Bound compound (E. coli cells; 0.01 μM compound, 0 washings): 0.024 ± 0.01 nmoles/mg cell proteins
Bound compound (E. coli cells; 0.01 μM compound, 3 washings): 0.009 ± 0.001 nmoles/mg cell proteins
Bound compound (E. coli cells; 0.1 μM compound, 0 washings): 0.056 ± 0.02 nmoles/mg cell proteins
Bound compound (E. coli cells; 0.1 μM compound, 3 washings): 0.030 ± 0.02 nmoles/mg cell proteins
Bound compound (E. coli cells; 0.5 μM compound, 0 washings): 0.522 ± 0.2 nmoles/mg cell proteins
Bound compound (E. coli cells; 0.5 μM compound, 3 washings): 0.274 ± 0.15 nmoles/mg cell proteins
Bound compound (E. coli cells; 1 μM compound, 0 washings): 3.670 ± 0.7 nmoles/mg cell proteins
Bound compound (E. coli cells; 1 μM compound, 3 washings): 2.230 ± 0.8 nmoles/mg cell proteins
Chemical stability under stress [1]: less stable than Compounds 10 and 12

C[C@@H]1O[C@@H]1P(=O)(O)O [Fosfomycin]
MIC (S. aureus SH1000; Staphylococcus aureus, planktonic S. aureus SH1000 (Table 5), read-out: MIC): 16 µg/mL (≈ 116 µM)
MIC (S. aureus SH1000; [5]): 16 µg/mL (≈ 116 µM)
MIC ([2]; 24 h, biofilm MIC, S. aureus SH1000, Calgary Biofilm Device, 24 hours (Table 6)): 8 µg/mL (≈ 57.9 µM)
MIC ([2]; biofilm MIC, S. aureus SH1000, Calgary device (Example H)): 8 µg/mL (≈ 57.9 µM)
viability / bactericidal activity in time-kill (in words) [3]: no loss of viability; also recorded: completely attenuated
viability / bactericidal activity in time-kill (in words) [4]: no loss of viability
effect of the stringent response on bactericidal activity (S. aureus 8325-4): completely abolishes the bactericidal activity

CN[C@H](CC(C)C)C(=O)N[C@H]1C(=O)N[C@@H](CC(N)=O)C(=O)N[C@H]2C(=O)N[C@H]3C(=O)N[C@H](C(=O)N[C@H](C(=O)O)c4cc(O)cc(O)c4-c4cc3ccc4O)[C@H](O)c3ccc(c(Cl)c3)Oc3cc2cc(c3O[C@@H]2O[C@H](CO)[C@@H](O)[C@H](O)[C@H]2O[C@H]2C[C@](C)(N)[C@H](O)[C@H](C)O2)Oc2ccc(cc2Cl)[C@H]1O [Vancomycin]
MIC (S. aureus SH1000; Staphylococcus aureus, SH1000): 1 µg/mL (≈ 0.69 µM)
MIC (S. aureus SH1000; [5]): 1 µg/mL (≈ 0.69 µM)
MIC ([2]; 24 h): 2 µg/mL (≈ 1.38 µM)
MIC [2]: 2 µg/mL (≈ 1.38 µM)
viability / bactericidal activity in time-kill (in words) [3]: no loss of viability
viability / bactericidal activity in time-kill (in words) [4]: no loss of viability; also recorded: abolished
MBC Values (staphylococci; literature value (Biavasco et al. 1997; Fuchs et al. 2002)): 4-16^b μg/mL
MIC Values (staphylococci): 1^a μg/mL
effect of the stringent response on bactericidal activity (S. aureus 8325-4): completely abolishes the bactericidal activity

CC(=O)NC[C@H]1CN(c2ccc(N3CCOCC3)c(F)c2)C(=O)O1 [Zyvox ® (Linezolid), Linezolid]
MIC Values (staphylococci): 4^a μg/mL

N[C@@H]1CON=C1O [cycloserine]
effect of the stringent response on bactericidal activity (S. aureus 8325-4): completely abolishes the bactericidal activity
